Target: 5-hydroxytryptamine receptor 6 (Homo sapiens, UniProt P50406)
Experiment: Radioligand-Binding Assay
Conditions: pH 7.4; 37 °C
Experimental: In brief, receptor source and radioligand used were human recombinant expressed in HEK-293 cells and [3H] LSD (60-80 Ci/mmol), respectively. The final ligand concentration was 1.5 nM and non-specific determinant was methiothepin mesylate ([…]). The reference compound and positive control is methiothepin mesylate. Reactions were carried out in 50 mM Tris-HCl (pH 7.4) containing 10 mM MgCl2, 0.5 mM EDTA for 60 min at 37°C. The reaction was terminated by rapid vacuum filtration onto glass fibre filters.

Chain of 5-hydroxytryptamine receptor 6 (P50406 whole entry): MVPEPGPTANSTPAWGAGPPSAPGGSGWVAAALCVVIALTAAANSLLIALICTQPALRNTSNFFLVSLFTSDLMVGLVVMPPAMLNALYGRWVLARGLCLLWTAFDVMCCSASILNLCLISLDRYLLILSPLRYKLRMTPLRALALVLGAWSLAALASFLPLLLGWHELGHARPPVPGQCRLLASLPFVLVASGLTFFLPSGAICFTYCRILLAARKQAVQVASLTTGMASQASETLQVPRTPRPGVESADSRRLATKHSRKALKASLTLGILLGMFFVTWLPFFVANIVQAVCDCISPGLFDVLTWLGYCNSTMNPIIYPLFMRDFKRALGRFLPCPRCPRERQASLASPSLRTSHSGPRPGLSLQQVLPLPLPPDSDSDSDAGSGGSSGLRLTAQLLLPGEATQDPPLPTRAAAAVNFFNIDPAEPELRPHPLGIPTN

Structure (SMILES) | Ki [nM]
CC(CC1=C2c3ccccc3S(=O)(=O)C2c2ccc(OCc3ccccc3)cc21)N(C)C (stereo unspecified) [2-Benzyloxy-10-[(2-N,N-dimethylamino-2-methyl)ethyl]benzo[d]isothiazolo[3,2-a]indol-S,S-dioxide (18)] | 100
CC(CC1=C2c3ccccc3S(=O)(=O)C2c2ccc(Br)cc21)N(C)C (stereo unspecified) [2-Bromo-10-[(2-N,N-dimethylamino-2-methyl)ethyl]benzo[d]isothiazolo[3,2-a]indol-S,S-dioxide (13)] | 54.1
CC(CC1=C2c3ccccc3S(=O)(=O)C2c2ccc(OCC3CCCCC3)cc21)N(C)C (stereo unspecified) [2-Cyclohexylmethyloxy-10-[(2-N,N-dimethylamino-2-methyl)ethyl]benzo[d] isothiazolo[3,2-a]indol-S,S-dioxide (20)] | > 1000
CN(C)CCC1=C2c3ccccc3S(=O)(=O)C2c2ccc(F)cc21 (stereo unspecified) [10-(2-N,N-Dimethylaminoethyl)-2-fluorobenzo[d]isothiazolo[3,2-a]indol-S,S-dioxide (7)] | 267
CN(C)CCC1=C2c3ccccc3S(=O)(=O)C2c2ccccc21 (stereo unspecified) [10-(2-N,N-Dimethylaminoethyl)benzo[d]isothiazolo[3,2-a]indol-S,S-dioxide (6)] | 246
CN(C)CCC1=C2c3ccccc3CC2c2c1ccc1ccccc21 (stereo unspecified) [10-(2-N,N-dimethylaminoethyl)benzo[d]isoindolo[2,1-a]indole (28)] | 92.6

Further lines, results first:

Ki [nM] | Structure (SMILES)
11.1 | CCOc1ccc2c(c1)C(CC(C)N(C)C)=C1c3ccccc3S(=O)(=O)C12 (stereo unspecified) [2-Ethoxy-10-[(2-N,N-dimethylamino-2-methyl)ethyl]benzo[d]isothiazolo[3,2-a]indol-S,S-dioxide (17)]
239 | CC(C)Oc1ccc2c(c1)C(CC(C)N(C)C)=C1c3ccccc3S(=O)(=O)C12 (stereo unspecified) [2-Isopropoxy-10-[(2-N,N-dimethylamino-2-methyl)ethyl]benzo[d] isothiazolo[3,2-a]indol-S,S-dioxide (19)]
96 | COc1ccc2c(c1)C(CCN(C)C)=C1c3ccccc3S(=O)(=O)C12 (stereo unspecified) [2-Methoxy-10-(2-N,N-dimethylaminoethyl)benzo[d]isothiazolo[3,2-a]indol-S,S-dioxide (14)]
28.3 | CCC(CC1=C2c3ccccc3S(=O)(=O)C2c2ccc(OC)cc21)N(C)C (stereo unspecified) [2-Methoxy-10-[(2-N,N-dimethylamino-2-ethyl)ethyl]benzo[d]isothiazolo[3,2-a]indol-S,S-dioxide (16)]
11.6 | COc1ccc2c(c1)C(CC(C)N(C)C)=C1c3ccccc3S(=O)(=O)C12 (stereo unspecified) [2-Methoxy-10-[(2-N,N-dimethylamino-2-methyl)ethyl)]benzo[d]isothiazolo[3,2-a]indol-S,S-dioxide (15)]
